US20250186379A1, “METHODS AND AGENTS FOR DECREASING INSULIN RESISTANCE” (Whitehead Institute for Biomedical Research, priority 2021, published 2025)
“Also recorded” adds a separate entry of the source. Like-named read-outs stand apart in the source and are kept apart here.

Columns and labels:
[1] = system: insulin signaling proteins (IR, IRS1, AKT, ERK, GSK3); assay: Immunoblot of phosphorylated over total insulin signaling proteins in HepG2 cells; format: cell-based, human
Procedure: Cells were washed with ice-cold PBS and lysed in Cell Lytic M (Sigma-Aldrich C2978) supplemented with protease and phosphatase inhibitors (Sigma Aldrich, 11873580001 and 4906837001) directly on the wells. Lysates were placed into a 1.5 ml tube and mixed at 4° C. for 20 min and then centrifuged at 13,000 rpm for 15 min. Protein concentration was determined using a BCA Protein Assay Kit (Life Technologies, 23250) according to the manufacturer's instructions. Equal amounts of protein (5-50 μg per sample) were separated on 10% or 12% Bis-Tris gels in 5% XT MOPS running buffer (Bio-Rad Laboratories, 1610788) at 100V until dye front reached the end of the gel. Protein was then transferred to a 0.45 μM PVDF membrane (Millipore, IPVH00010) in ice cold transfer buffer (25 mM Tris, 192 mM glycine, 20% methanol) at 300 mA for 1 hour or 250 mA for 2 hours at 4° C. After the transfer, membranes were blocked in 5% non-fat milk (LabScientific, M0842) dissolved in TBST (2% Tris HCl pH 8.0, 1.3% 5M NaCl, 0.05% Tween 20) or 5% BSA (VWR, 102643-516) in 1×TBST for 15 min to 1 hour at room temperature shaking. Membranes were then incubated overnight at 4° C. in 1:1000 primary antibody in 5% non-fat milk in TBST or 5% BSA in TBST. BSA was used for immunoblotting phosphorylated proteins, otherwise milk was used. Membranes were then washed three times for 5 min in TBST shaking at room temperature prior to incubation in 1:10,000 secondary antibody in 5% non-fat milk in TBST for 1 hour at room temperature. This was followed by three 10-minute washes in TBST. Membranes were developed with ECL substrate (Thermo Scientific, 34080) and imaged using a CCD camera. Immunoblot quantification was performed using the “analyze gel” tool on Fiji/ImageJ v2.1.0/153c.
The following primary antibodies were used for WB: anti-phosphorylated insulin receptor (Abcam, ab60946 and Cell Signaling 3026), anti-insulin receptor beta (Cell Signaling, 23413; Bethyl, A303-712A or Cell Signaling, 3025), anti-insulin receptor alpha (Cell Signaling, 74118), anti-phosphorylated AKT (Cell Signaling, 4056), anti-AKT (Cell Signaling, 9272), anti-phosphorylated ERK (Cell Signaling, 4377), anti-ERK (Cell Signaling, 9102), anti-beta Actin (Sigma Aldrich, A5441). The following secondary antibodies were used: donkey anti-rabbit IgG (Cytiva Life Sciences, NA934-1ML) and sheep anti-mouse IgG (Sigma Aldrich, NXA931V).
Cells were washed with ice-cold PBS (Life Technologies, AM9625) and lysed in Cell Lytic M (Sigma Aldrich C2978) supplemented with protease and phosphatase inhibitors (Sigma Aldrich, 11873580001 and 4906837001) directly on the wells. Lysates were placed into a 1.5 ml tube and mixed at 4° C. for 20 minutes, sonicated and then centrifuged at 12,000×g for 15 minutes. Super natant was collected and protein concentration was determined using a BCA Protein Assay Kit (Life Technologies, 23250) according to the manufacturer's instructions. Equal amounts of protein (5-50 μg per sample) were separated on 10% or 12% Bis-Tris gels in 5% XT MOPS running buffer (Bio-Rad Laboratories, 1610788) at 100V until dye front reached the end of the gel. Protein was then transferred to a 0.45 μM PVDF membrane (Millipore, IPVH00010) in ice cold transfer buffer (25 mM Tris, 192 mM glycine, 20% methanol) at 300 mA for 1 hour or 250 mA for 2 hours at 4° C. After the transfer, membranes were blocked in either 5% non-fat milk (LabScientific, M0842) dissolved in TBST (2% Tris HCl pH 8.0, 1.3% 5M NaCl, 0.05% Tween 20) or 5% BSA (VWR, 102643-516) in 1×TBST for 15 minutes to 1 hour at room temperature with shaking. Membranes were then incubated overnight at 4° C. in 1:1000 primary antibody (specific antibodies listed below) in 5% non-fat milk in TBST or 5% BSA in TBST. BSA was used for immunoblotting phosphorylated proteins, otherwise milk was used. […]

[2] = cited from earlier work
IR condensates = assay: Immunofluorescence for IR in human liver tissue from donors; format: in vivo; conditions: liver tissue of donors with T2D treated with metformin vs T2D and healthy donors
Description: (§1) Images were then processed using Fiji/ImageJ v2.1.0/153c.
as §1

HepG2 cells = assay: Glucose production in HepG2 cells; format: cell-based, human
Procedure: Insulin sensitive and resistant cells were cultured in EMEM for 30 minutes and then cells were treated with 0, 0.1, 1 and 10 nM insulin in glucose production media, containing DMEM (Thermo Fisher Scientific, A1443001), 15 mM HEPES (Gibco, 15630-080), 1 mM pyruvate (Sigma Aldrich, P5280), 20 mM lactate (Sigma Aldrich, L7022-5G) for 4-5 hours. Media was removed and glucose production was measured using Amplex™ Red Glucose/Glucose oxidase assay kit (Thermo Fisher Scientific, A22189) according to the manufacturer's specifications.
To wash out insulin, cells were washed with EMEM (ATCC 30-2003) seven times, including: three quick washes, three 5-minute washes and a long 20 minute-wash in EMEM at 37° C. Cells were washed with glucose-free RPMI (Gibco, 11879-020) then cultured in glucose-free RPMI for 3 hours. […] Cells were then processed for metabolite isolation (see below).
Metabolite isolation from HepG2 cells: cells were washed in ice-cold PBS (Life Technologies, AM9625), 500 μl of cold 80% MeOH (shared by the Metabolite Profiling Core Facility) was added per well of a 6-well plate and the plate was placed at −80° C. for at least 15 minutes. Following the −80 incubation, the plate was scraped on dry ice and the solution was transferred to a 1.5 ml tube and then vortexed for 5 minutes. […]

[3] = cells exposed to pathologic levels (3 nM) of insulin for two days
[4] = insulin-sensitive HepG2 cells, acute insulin stimulation

Compound	IRS1 phosphorylation (pIRS1 over total IRS1, western blot) ([1]; insulin-resistant cells + metformin (FIG. 38))	concentration of metformin in the plasma of T2D patients ([2]; T2D patients (Example 1)) [µM]	concentration of metformin in the plasma of T2D patients ([2]; T2D patients (Example 2, refs 58-60)) [µM]	IR signal in condensates/puncta of hepatocytes (IR condensates)	phosphorylation of GSK3 after insulin stimulation [1, 3]	phosphorylation of insulin signaling proteins after insulin stimulation ([1]; cells exposed to pathologic levels (3 nM) of insulin for two days vs physiologic (0.1 nM))	GSK3 phosphorylation ([1]; insulin-sensitive HepG2 cells, 3 nM insulin 5 minutes)	AKT and ERK pathway activation [1, 4]	IR phosphorylation [1, 4]	glucose production after insulin stimulation (HepG2 cells; [3])	glucose production (HepG2 cells; insulin-sensitive HepG2 cells, acute insulin stimulation (FIGS. 22G-22H))
CN(C)C(=N)N=C(N)N [metformin, reference compound]	partial rescue of IRS1 phosphorylation; also recorded: partially rescues phosphorylation of IRS1	~12.5	~12.5	increased IR signals in condensates that approximated those seen in tissue from healthy donors; also recorded: IR punctate signals similar to those observed in healthy tissues							
insulin: insulin (Sigma Aldrich, I9278-5ML) used for acute stimulation and chronic physiological or pathological exposure					decreased phosphorylation of GSK3	reduced phosphorylation of IR, IRS1, AKT and ERK	increased GSK3 phosphorylation	stimulate; also recorded: AKT and ERK pathway activation	stimulate; also recorded: induced IR phosphorylation	unchanged	decreased glucose production
